According to publication PMC9804871, “Effect of Opicapone on Levodopa Pharmacokinetics in Patients with Fluctuating Parkinson's Disease” (Movement Disorders, 2022):

Key:
Type in all cases: in vivo, human (patients with PD)
[1] = 12-hour 3-O-methyldopa plasma pharmacokinetics; conditions: for 3-O-methyldopa Cmax,max, Geometric Mean (90% CI): N 12; for 3-O-methyldopa tmax: median; for 3-O-methyldopa Cmax,max: mean (%CV)
Experimental: Following screening, all patients received a daily LD/CD dose of 500/125 mg for 2 weeks, administered as LD/CD 100/25 mg five times a day (five‐intake LD/CD 500/125 mg), fixed every 3 hours (from 8 AM to 8 PM) at pharmacokinetic day. Patients were then randomly assigned (1:1) to receive two different regimens of opicapone 50 mg plus LD/CD (400/100 mg daily) for an additional 2 weeks. • Patients on opicapone regimen 1 received LD/CD 100/25 mg four times a day plus opicapone 50 mg at least 1 hour after the last administration of LD/CD each day (four‐intake LD/CD 400/100 mg plus opicapone 50 mg), fixed every 4 hours (from 8 AM to 8 PM) at pharmacokinetic day. • Patients on opicapone regimen 2 received alternating LD/CD 100/25 mg and 50/12.5 mg doses (ie, 100/25 mg, 50/12.5 mg, 100/25 mg, 50/12.5 mg, and 100/25 mg) five times a day plus opicapone 50 mg at least 1 hour after the last administration of LD/CD each day (five‐intake LD/CD 400/100 mg plus opicapone 50 mg), fixed every 3 hours (from 8 AM to 8 PM) at pharmacokinetic day.
The primary objective of the study was to evaluate the pharmacokinetics of LD in the two opicapone LD/CD 400/100 mg dosing regimens (four and five intakes) when compared with the five‐intake LD/CD 500/125 mg regimen without opicapone. The pharmacokinetics study endpoint was set after 2 weeks of each treatment regimen (ie, at the end of the initial five‐intake LD/CD 500/125 mg treatment regimen and at the end of the LD/CD 400/100 mg plus opicapone treatment). Pharmacokinetic evaluation occurred over 12 hours with sampling every 30 minutes, except for the last sample following each LD dose in the opicapone plus four LD intake regimen, which was sampled at 1 hour. The main pharmacokinetics parameters assessed included maximum observed plasma concentration (Cmax), time to achieve peak plasma levels (tmax), minimum observed plasma concentration (Cmin), plasma elimination half‐life (t1/2), area under the curve (AUC), and fluctuation index (FI; as an expression of peak‐to‐trough fluctuation, Cmax, and Cmin, relative to average concentration [Cavg]). The pharmacokinetics of the LD metabolite 3‐O‐methyldopa (3‐OMD) was also evaluated.
Descriptive statistics were used to summarize the pharmacokinetics parameters for LD and 3‐OMD for each of the three regimens. […] No formal comparison was performed between opicapone regimens. Pharmacokinetic parameters were evaluated within the same population for each LD/CD 400/100 mg plus opicapone treatment regimen compared with the LD/CD 500/125 mg without opicapone regimen. Geometric mean ratios and corresponding 90% confidence intervals (CIs) for the LD and 3‐OMD log‐transformed pharmacokinetics parameters (AUCtotal, Cmax,max and Cmin,min [only for LD]) were calculated using a paired t test for the comparison between the five‐intake LD/CD 500/125 mg treatment without opicapone and each of the two LD/CD 400/100 mg plus opicapone regimens; only data from completers (patients with data for both regimens) were used for this analysis.

[2] = test system: patients with PD and end-of-dose motor fluctuations; experiment: 12-hour patient on/off monitoring on pharmacokinetics days; conditions: for OFF-time / ON-time / ON-time With Dyskinesia / ON-time Without Dyskinesia / Time to Best-ON / Time to ON: mean; for 12-hour OFF-time / 12-hour ON-time / 12-hour ON-time With Dyskinesia / 12-hour ON-time Without Dyskinesia / 12-hour Time to Best-ON / 12-hour Time to ON: mean (SD)
Experimental: (§1) Clinical and safety/tolerability outcomes were also assessed as exploratory secondary outcomes. Clinical outcomes included on and off time assessed using patient‐rated tools. The timing of on and off states was registered (in real time) by the investigators during the matching 12‐hour pharmacokinetic evaluation (as such applied on pharmacokinetics days only), and patients also completed 24‐hour patient Hauser on/off diary charts[21] (in 30‐minute blocks) during the 3 days before each pharmacokinetic visit. Diary states of interest were off time and on time, including on without dyskinesia, on with nontroublesome dyskinesia, and on with troublesome dyskinesia. In addition, the Patient Global Impression of Change (PGI‐C) of opicapone 50 mg was evaluated at the end of the LD/CD 400/100 mg plus opicapone treatment compared with before the start of opicapone treatment.[22] Safety and tolerability endpoints included treatment‐emergent adverse events (TEAEs), serious TEAEs, and TEAEs leading to discontinuation.
(§2) Clinical outcomes are also presented descriptively. A paired t test was used for the comparison of 12‐hour off and on time, 24‐hour off and on time, time to on, and time to best on between each opicapone‐containing regimen and the regimen without opicapone. Estimates of mean difference and corresponding 90% CIs were reported for all main variables.

[3] = test system: patients with PD and end-of-dose motor fluctuations; experiment: 24-hour patient Hauser on/off diary; conditions: for ON-time With Non-Troublesome Dyskinesia / ON-time With Troublesome Dyskinesia / ON-time Without Dyskinesia / Total OFF-time / Total ON-time: 24-hour Hauser diary, mean (SD); for 24-h total off time, geometric mean (90% CI) / 24-h total on time, geometric mean (90% CI): N 12
Experimental: as §1, §2

[4] = 5-intake LD/CD 500/125mg vs 4-intake LD/CD 400/100mg plus OPC 50mg, 1st LD/CD intake, mean
[5] = 5-intake LD/CD 500/125mg vs 4-intake LD/CD 400/100mg plus OPC 50mg, 1st LD/CD intake
[6] = 5-intake LD/CD 500/125mg vs 4-intake LD/CD 400/100mg plus OPC 50mg, 2nd LD/CD intake, mean
[7] = 5-intake LD/CD 500/125mg vs 4-intake LD/CD 400/100mg plus OPC 50mg, 2nd LD/CD intake
[8] = 5-intake LD/CD 500/125mg vs 4-intake LD/CD 400/100mg plus OPC 50mg, 3rd LD/CD intake, mean
[9] = 5-intake LD/CD 500/125mg vs 4-intake LD/CD 400/100mg plus OPC 50mg, 3rd LD/CD intake
[10] = 5-intake LD/CD 500/125mg vs 4-intake LD/CD 400/100mg plus OPC 50mg, 4th LD/CD intake, mean
[11] = 5-intake LD/CD 500/125mg vs 4-intake LD/CD 400/100mg plus OPC 50mg, 4th LD/CD intake
[12] = 5-intake LD/CD 500/125mg vs 4-intake LD/CD 400/100mg plus OPC 50mg
[13] = 5-intake LD/CD 500/125mg vs 5-intake LD/CD 400/100mg plus OPC 50mg, 1st LD/CD intake, mean
[14] = 5-intake LD/CD 500/125mg vs 5-intake LD/CD 400/100mg plus OPC 50mg, 1st LD/CD intake
[15] = 5-intake LD/CD 500/125mg vs 5-intake LD/CD 400/100mg plus OPC 50mg, 2nd LD/CD intake, mean
[16] = 5-intake LD/CD 500/125mg vs 5-intake LD/CD 400/100mg plus OPC 50mg, 2nd LD/CD intake
[17] = 5-intake LD/CD 500/125mg vs 5-intake LD/CD 400/100mg plus OPC 50mg, 3rd LD/CD intake, mean
[18] = 5-intake LD/CD 500/125mg vs 5-intake LD/CD 400/100mg plus OPC 50mg, 3rd LD/CD intake
[19] = 5-intake LD/CD 500/125mg vs 5-intake LD/CD 400/100mg plus OPC 50mg, 4th LD/CD intake, mean
[20] = 5-intake LD/CD 500/125mg vs 5-intake LD/CD 400/100mg plus OPC 50mg, 4th LD/CD intake
[21] = 5-intake LD/CD 500/125mg vs 5-intake LD/CD 400/100mg plus OPC 50mg
[22] = five-intake levodopa/carbidopa 500/125 mg vs five-intake levodopa/carbidopa 400/100 mg plus opicapone 50 mg, N 9
[23] = five-intake levodopa/carbidopa 500/125 mg vs four-intake levodopa/carbidopa 400/100 mg plus opicapone 50 mg, N 10
[24] = five-intake levodopa/carbidopa 500/125 mg vs four-intake levodopa/carbidopa 400/100 mg plus opicapone 50 mg, N 12
[25] = five-intake levodopa/carbidopa 500/125 mg vs five-intake levodopa/carbidopa 400/100 mg plus opicapone 50 mg
[26] = five-intake levodopa/carbidopa 500/125 mg vs four-intake levodopa/carbidopa 400/100 mg plus opicapone 50 mg

levodopa/carbidopa [LD/CD]
3-O-methyldopa Cmax,max, Geometric Mean (90% CI) ([1]; 5-intake LD/CD 500/125mg vs 4-intake LD/CD 400/100mg +OPC 50mg): 4264 (3631, 5006) ng/mL
3-O-methyldopa AUCτ [1, 4]: 10068^a h*ng/mL
3-O-methyldopa Cmax [1, 4]: 3453 ng/mL
3-O-methyldopa Cmin [1, 4]: 3021 ng/mL
3-O-methyldopa tmax [1, 5]: 1.75 h
3-O-methyldopa Cmax [1, 6]: 3619 ng/mL
3-O-methyldopa Cmin [1, 6]: 3077 ng/mL
3-O-methyldopa tmax [1, 7]: 2.5 h
3-O-methyldopa AUCτ [1, 8]: 14278^b h*ng/mL
3-O-methyldopa Cmax [1, 8]: 4011 ng/mL
3-O-methyldopa Cmin [1, 8]: 3437 ng/mL
3-O-methyldopa tmax [1, 9]: 2.71 h
3-O-methyldopa AUCτ ([1]; 5-intake LD/CD 500/125mg vs 4-intake LD/CD 400/100mg plus OPC 50mg, 4th LD/CD intake, 1 patient): 13519^c h*ng/mL
3-O-methyldopa Cmax [1, 10]: 4435 ng/mL
3-O-methyldopa Cmin [1, 10]: 3766 ng/mL
3-O-methyldopa tmax [1, 11]: 2.5 h
3-O-methyldopa Cmax,max [1, 12]: 4447 (29.2) ng/mL
3-O-methyldopa Cmax,max, Geometric Mean (90% CI) ([1]; 5-intake LD/CD 500/125mg vs 5-intake LD/CD 400/100mg +OPC 50mg): 4201 (3733, 4727) ng/mL
3-O-methyldopa AUCτ [1, 13]: 8991^g h*ng/mL
3-O-methyldopa Cmax [1, 13]: 3191 ng/mL
3-O-methyldopa Cmin [1, 13]: 2868 ng/mL
3-O-methyldopa tmax [1, 14]: 1.5 h
3-O-methyldopa AUCτ [1, 15]: 9002^d h*ng/mL
3-O-methyldopa Cmax [1, 15]: 3406 ng/mL
3-O-methyldopa Cmin [1, 15]: 2907 ng/mL
3-O-methyldopa tmax [1, 16]: 2.5 h
3-O-methyldopa AUCτ ([1]; 5-intake LD/CD 500/125mg vs 5-intake LD/CD 400/100mg plus OPC 50mg, 3rd LD/CD intake, 1 patient): 11951^c h*ng/mL
3-O-methyldopa Cmax [1, 17]: 3875 ng/mL
3-O-methyldopa Cmin [1, 17]: 3151 ng/mL
3-O-methyldopa tmax [1, 18]: 2.5 h
3-O-methyldopa Cmax [1, 19]: 4170 ng/mL
3-O-methyldopa Cmin [1, 19]: 3586 ng/mL
3-O-methyldopa tmax [1, 20]: 2.71 h
3-O-methyldopa Cmax,max [1, 21]: 4300 (22.4) ng/mL
OFF-time [2, 5]: 79.8 min
ON-time [2, 5]: 100.3 min
ON-time With Dyskinesia [2, 5]: 45.0 min
ON-time Without Dyskinesia [2, 5]: 92.8 min
Time to Best-ON [2, 5]: 55.0 min
Time to ON [2, 5]: 38.9 min
OFF-time [2, 7]: 106.9 min
ON-time [2, 7]: 73.1 min
ON-time With Dyskinesia [2, 7]: 23.3 min
ON-time Without Dyskinesia [2, 7]: 67.3 min
Time to Best-ON [2, 7]: 58.8 min
Time to ON [2, 7]: 50.0 min
OFF-time [2, 9]: 89.5 min
ON-time [2, 9]: 90.5 min
ON-time With Dyskinesia [2, 9]: 23.8 min
ON-time Without Dyskinesia [2, 9]: 81.8 min
Time to Best-ON [2, 9]: 62.0 min
Time to ON [2, 9]: 40.5 min
OFF-time [2, 11]: 84.6 min
ON-time [2, 11]: 91.3 min
ON-time With Dyskinesia [2, 11]: 22.5 min
ON-time Without Dyskinesia [2, 11]: 87.5 min
Time to Best-ON [2, 11]: 57.9 min
Time to ON [2, 11]: 42.1 min
12-hour OFF-time [2, 12]: 353.3 (80.46) min
12-hour ON-time [2, 12]: 347.5 (92.53) min
12-hour ON-time With Dyskinesia [2, 12]: 60.0 (45.14) min
12-hour ON-time Without Dyskinesia [2, 12]: 322.5 (106.27) min
12-hour Time to Best-ON [2, 12]: 59.22 (14.92) min
12-hour Time to ON [2, 12]: 46.14 (12.38) min
OFF-time [2, 14]: 88.5 min
ON-time [2, 14]: 91.5 min
ON-time With Dyskinesia [2, 14]: 33.8 min
ON-time Without Dyskinesia [2, 14]: 79.2 min
Time to Best-ON [2, 14]: 62.7 min
Time to ON [2, 14]: 41.5 min
OFF-time [2, 16]: 103.0 min
ON-time [2, 16]: 77.0 min
ON-time With Dyskinesia [2, 16]: 27.5 min
ON-time Without Dyskinesia [2, 16]: 71.5 min
Time to Best-ON [2, 16]: 51.7 min
Time to ON [2, 16]: 36.0 min
OFF-time [2, 18]: 86.5 min
ON-time [2, 18]: 93.5 min
ON-time With Dyskinesia [2, 18]: 31.7 min
ON-time Without Dyskinesia [2, 18]: 74.5 min
Time to Best-ON [2, 18]: 50.0 min
Time to ON [2, 18]: 44.5 min
OFF-time [2, 20]: 96.0 min
ON-time [2, 20]: 81.0 min
ON-time With Dyskinesia [2, 20]: 27.5 min
ON-time Without Dyskinesia [2, 20]: 75.5 min
Time to Best-ON [2, 20]: 57.5 min
Time to ON [2, 20]: 52.5 min
12-hour OFF-time [2, 21]: 348.1 (103.9) min
12-hour ON-time [2, 21]: 320.1 (83.80) min
12-hour ON-time With Dyskinesia [2, 21]: 72.5 (24.24) min
12-hour ON-time Without Dyskinesia [2, 21]: 280.5 (71.44) min
12-hour Time to Best-ON [2, 21]: 55.46 (14.86) min
12-hour Time to ON [2, 21]: 43.13 (11.32) min
12-h off time, geometric mean (90% CI) [2, 22]: 376.9 (349.9, 406.0) min
12-h on time, geometric mean (90% CI) [2, 22]: 333.1 (298.8, 371.2) min
12-h time to on, geometric mean (90% CI) ([2]; five-intake levodopa/carbidopa 500/125 mg vs five-intake levodopa/carbidopa 400/100 mg plus opicapone 50 mg, N 10): 41.84 (36.03, 48.59) min
12-h time to best on, geometric mean (90% CI) ([2]; five-intake levodopa/carbidopa 500/125 mg vs five-intake levodopa/carbidopa 400/100 mg plus opicapone 50 mg, N 12): 53.97 (47.84, 60.89) min
12-h off time, geometric mean (90% CI) [2, 23]: 356.4 (313.2, 405.5) min
12-h on time, geometric mean (90% CI) [2, 23]: 340.3 (292.0, 396.7) min
12-h time to best on, geometric mean (90% CI) [2, 24]: 57.62 (50.84, 65.31) min
12-h time to on, geometric mean (90% CI) [2, 24]: 44.62 (38.75, 51.39) min
ON-time With Non-Troublesome Dyskinesia [3, 12]: 86.7 (72.6) min
ON-time With Troublesome Dyskinesia [3, 12]: 35.0 (26.5) min
ON-time Without Dyskinesia [3, 12]: 411.7 (122.6) min
Total OFF-time [3, 12]: 442.50 (96.3) min
Total ON-time [3, 12]: 488.3 (110.9) min
ON-time With Non-Troublesome Dyskinesia [3, 21]: 66.4 (48.0) min
ON-time With Troublesome Dyskinesia [3, 21]: 20.0 (24.49) min
ON-time Without Dyskinesia [3, 21]: 446.7 (110.0) min
Total OFF-time [3, 21]: 431.70 (100.3) min
Total ON-time [3, 21]: 519.2 (91.2) min
24-h total off time, geometric mean (90% CI) [3, 25]: 420.3 (369.8, 477.6) min
24-h total on time, geometric mean (90% CI) [3, 25]: 512.5 (470.9, 557.9) min
24-h total off time, geometric mean (90% CI) [3, 26]: 433.0 (386.4, 485.0) min
24-h total on time, geometric mean (90% CI) [3, 26]: 476.5 (421.9, 538.2) min
